# Source: publication PMC9090415, “Discovery of small molecule inhibitors of Plasmodium falciparum apicoplast DNA polymerase” (Journal of Enzyme Inhibition and Medicinal Chemistry, 2022)
# Biological target: T1, bacteriophage T4 DNA polymerase (Enterobacteria phage T4, UniProt P04415)
# T1 construct: made in house
# T1 sequence (P04415 1-898): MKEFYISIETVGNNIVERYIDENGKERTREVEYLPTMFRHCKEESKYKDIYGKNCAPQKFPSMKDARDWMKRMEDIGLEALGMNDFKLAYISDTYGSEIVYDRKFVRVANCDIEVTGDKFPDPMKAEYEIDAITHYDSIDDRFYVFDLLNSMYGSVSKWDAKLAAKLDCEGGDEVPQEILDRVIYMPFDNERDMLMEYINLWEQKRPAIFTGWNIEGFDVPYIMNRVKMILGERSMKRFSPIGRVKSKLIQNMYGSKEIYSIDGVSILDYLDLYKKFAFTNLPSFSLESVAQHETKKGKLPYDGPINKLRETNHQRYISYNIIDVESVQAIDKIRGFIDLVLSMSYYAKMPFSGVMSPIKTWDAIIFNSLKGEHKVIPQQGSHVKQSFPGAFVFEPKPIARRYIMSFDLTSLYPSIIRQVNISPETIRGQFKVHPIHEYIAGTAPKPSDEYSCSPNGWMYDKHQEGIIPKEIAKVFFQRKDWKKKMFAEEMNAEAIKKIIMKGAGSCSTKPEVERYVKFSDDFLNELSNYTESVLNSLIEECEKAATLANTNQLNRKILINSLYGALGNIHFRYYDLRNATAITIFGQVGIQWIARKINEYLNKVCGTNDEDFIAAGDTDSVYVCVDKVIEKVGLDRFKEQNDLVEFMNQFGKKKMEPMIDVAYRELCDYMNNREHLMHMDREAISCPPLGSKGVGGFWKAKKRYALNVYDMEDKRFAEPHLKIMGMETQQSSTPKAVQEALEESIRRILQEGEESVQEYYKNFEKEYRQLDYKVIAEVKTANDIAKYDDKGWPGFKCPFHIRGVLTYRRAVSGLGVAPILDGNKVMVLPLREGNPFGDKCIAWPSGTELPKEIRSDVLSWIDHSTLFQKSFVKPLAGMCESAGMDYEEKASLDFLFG
# Assay: Counter-screen against bacteriophage T4 DNA polymerase
# Assay type: biochemical
# Settings: for % inhibition T4 10' 2.5 / % inhibition T4 10' 5 / % inhibition T4 10' 10 / % inhibition T4 10' 20 / % inhibition T4 10' 40 / % inhibition T4 10' 80: read at 10'
# Summary of the method: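 Purified T4 DNA polymerase, a B-family enzyme, served as the counter-screen enzyme. Compounds were tested in dose-response format and IC50 values were derived.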
compound,measurement,setting,value
"COc1ccc(/C=C/c2cc(C(=O)O)c3ccccc3n2)cc1 [Molecule 5, COc1ccc(cc1)/C=C/c1nc2ccccc2c(c1)C(=O)O]",% inhibition T4 10' 2.5,"DRC-1, concentration 2.5",1.081%
same,% inhibition T4 10' 5,"DRC-1, concentration 5",5.185%
same,% inhibition T4 10' 10,"DRC-1, concentration 10",0.5818%
same,% inhibition T4 10' 20,"DRC-1, concentration 20",-3.901%
same,% inhibition T4 10' 40,"DRC-1, concentration 40",-6.063%
same,% inhibition T4 10' 80,"DRC-1, concentration 80",5.54%
same,% inhibition T4 70' 2.5,"DRC-1, read at 70', concentration 2.5",-11.7738%
same,% inhibition T4 70' 5,"DRC-1, read at 70', concentration 5",-0.8035%
same,% inhibition T4 70' 10,"DRC-1, read at 70', concentration 10",5.827%
same,% inhibition T4 70' 20,"DRC-1, read at 70', concentration 20",2.436%
same,% inhibition T4 70' 40,"DRC-1, read at 70', concentration 40",2.364%
same,% inhibition T4 70' 80,"DRC-1, read at 70', concentration 80",3.646%
same,% inhibition T4 130' 2.5,"DRC-1, read at 130', concentration 2.5",-10.2066%
same,% inhibition T4 130' 5,"DRC-1, read at 130', concentration 5",-1.2832%
same,% inhibition T4 130' 10,"DRC-1, read at 130', concentration 10",4.495%
same,% inhibition T4 130' 20,"DRC-1, read at 130', concentration 20",3.3008%
same,% inhibition T4 130' 40,"DRC-1, read at 130', concentration 40",3.939%
same,% inhibition T4 130' 80,"DRC-1, read at 130', concentration 80",6.199%
same,% inhibition T4 10' 2.5,"DRC-2, concentration 2.5",4.49%
same,% inhibition T4 10' 5,"DRC-2, concentration 5",7%
same,% inhibition T4 10' 10,"DRC-2, concentration 10",18%
same,% inhibition T4 10' 20,"DRC-2, concentration 20",21%
same,% inhibition T4 10' 40,"DRC-2, concentration 40",24%
same,% inhibition T4 10' 80,"DRC-2, concentration 80",17%
same,% inhibition T4 40' 2.5,"DRC-2, read at 40', concentration 2.5",4%
same,% inhibition T4 40' 5,"DRC-2, read at 40', concentration 5",8%
same,% inhibition T4 40' 10,"DRC-2, read at 40', concentration 10",18%
same,% inhibition T4 40' 20,"DRC-2, read at 40', concentration 20",27%
same,% inhibition T4 40' 40,"DRC-2, read at 40', concentration 40",31%
same,% inhibition T4 40' 80,"DRC-2, read at 40', concentration 80",26%
same,% inhibition T4 90' 2.5,"DRC-2, read at 90', concentration 2.5",3%
same,% inhibition T4 90' 5,"DRC-2, read at 90', concentration 5",6.33%
same,% inhibition T4 90' 10,"DRC-2, read at 90', concentration 10",16%
same,% inhibition T4 90' 20,"DRC-2, read at 90', concentration 20",25%
same,% inhibition T4 90' 40,"DRC-2, read at 90', concentration 40",29%
same,% inhibition T4 90' 80,"DRC-2, read at 90', concentration 80",27%
same,% inhibition T4 180' 2.5,"DRC-2, read at 180', concentration 2.5",-3.34%
same,% inhibition T4 180' 5,"DRC-2, read at 180', concentration 5",0.194%
same,% inhibition T4 180' 10,"DRC-2, read at 180', concentration 10",10%
same,% inhibition T4 180' 20,"DRC-2, read at 180', concentration 20",18%
same,% inhibition T4 180' 40,"DRC-2, read at 180', concentration 40",25%
same,% inhibition T4 180' 80,"DRC-2, read at 180', concentration 80",24%
"Cc1ccc(NC(=O)C2CCN(C(=O)c3cc4ccsc4[nH]3)CC2)c(Br)c1 [Molecule 14, O=C(C1CCN(CC1)C(=O)c1cc2c([nH]1)scc2)Nc1ccc(cc1Br)C]",% inhibition T4 10',"DRC-2, concentration 20",5%
same,% inhibition T4 10',"DRC-2, concentration 40",10%
same,% inhibition T4 10',"DRC-2, concentration 80",10%
same,% inhibition T4 40',"DRC-2, concentration 20",5%
same,% inhibition T4 40',"DRC-2, concentration 40",8%
same,% inhibition T4 40',"DRC-2, concentration 80",10%
same,% inhibition T4 90',"DRC-2, concentration 40",6%
same,% inhibition T4 90',"DRC-2, concentration 80",8%
"COc1ccc(-c2cc3nc4c(c(=O)n3[nH]2)CCN(C(=O)CCc2ccccc2)C4)cc1 [Molecule 17, COc1ccc(cc1)c1[nH]n2c(c1)nc1c(c2=O)CCN(C1)C(=O)CCc1ccccc1]",% inhibition T4 10',"DRC-2, concentration 2.5",-22%
same,% inhibition T4 10',"DRC-2, concentration 5",-46%
same,% inhibition T4 10',"DRC-2, concentration 10",-38%
same,% inhibition T4 10',"DRC-2, concentration 20",-44%
same,% inhibition T4 10',"DRC-2, concentration 40",-44%
same,% inhibition T4 40',"DRC-2, concentration 5",-38%
same,% inhibition T4 40',"DRC-2, concentration 10",-30%
same,% inhibition T4 90',"DRC-2, concentration 10",-25%
same,% inhibition T4 90',"DRC-2, concentration 40",-30%
same,% inhibition T4 90',"DRC-2, concentration 80",-46%
same,% inhibition T4 180',"DRC-2, concentration 2.5",-13%
same,% inhibition T4 180',"DRC-2, concentration 10",-22%
same,% inhibition T4 180',"DRC-2, concentration 20",-23%
same,% inhibition T4 180',"DRC-2, concentration 40",-25%
"O=[N+]([O-])c1ccc(/C=C/c2ccc3ccccc3n2)o1 [Molecule 21, O=N(=O)c1ccc(o1)/C=C/c1ccc2c(n1)cccc2]",% inhibition T4 10',"DRC-2, concentration 2.5",23%
same,% inhibition T4 10',"DRC-2, concentration 5",25%
same,% inhibition T4 40',"DRC-2, concentration 2.5",25%
same,% inhibition T4 40',"DRC-2, concentration 20",37%
same,% inhibition T4 40',"DRC-2, concentration 80",32%
same,% inhibition T4 90',"DRC-2, concentration 2.5",23%
same,% inhibition T4 90',"DRC-2, concentration 10",32%
same,% inhibition T4 90',"DRC-2, concentration 80",37%
same,% inhibition T4 180',"DRC-2, concentration 10",25%
same,% inhibition T4 180',"DRC-2, concentration 40",37%
"COc1cccc(C(=O)N2CCc3c(nc4cc(-c5ccccc5)[nH]n4c3=O)C2)c1OC [Molecule 22, COc1c(OC)cccc1C(=O)N1CCc2c(C1)nc1n(c2=O)[nH]c(c1)c1ccccc1]",% inhibition T4 10',"DRC-2, concentration 40",-28%
same,% inhibition T4 10',"DRC-2, concentration 80",-28%
same,% inhibition T4 40',"DRC-2, concentration 2.5",-13%
same,% inhibition T4 40',"DRC-2, concentration 40",-28%
same,% inhibition T4 40',"DRC-2, concentration 80",-27%
same,% inhibition T4 90',"DRC-2, concentration 2.5",-11%
same,% inhibition T4 90',"DRC-2, concentration 10",-29%
same,% inhibition T4 90',"DRC-2, concentration 40",-28%
same,% inhibition T4 180',"DRC-2, concentration 2.5",-11%
same,% inhibition T4 180',"DRC-2, concentration 10",-27%
same,% inhibition T4 180',"DRC-2, concentration 20",-29%
same,% inhibition T4 180',"DRC-2, concentration 40",-29%
"O=C(NNC(=O)c1ccc(Cl)cc1)C(=O)NNC(=O)c1ccc(Cl)cc1 [Molecule 25, O=C(C(=O)NNC(=O)c1ccc(cc1)Cl)NNC(=O)c1ccc(cc1)Cl]",% inhibition T4 10',"DRC-2, concentration 80",-22%
same,% inhibition T4 40',"DRC-2, concentration 5",-13%
same,% inhibition T4 40',"DRC-2, concentration 20",-23%
same,% inhibition T4 40',"DRC-2, concentration 40",-17%
same,% inhibition T4 90',"DRC-2, concentration 5",-13%
same,% inhibition T4 90',"DRC-2, concentration 20",-22%
same,% inhibition T4 180',"DRC-2, concentration 5",-17%
same,% inhibition T4 180',"DRC-2, concentration 20",-23%
same,% inhibition T4 180',"DRC-2, concentration 40",-17%
"COc1ccc(C(=O)N2CCc3c(nc4cc(-c5ccccc5Cl)[nH]n4c3=O)C2)cn1 [Molecule 26, COc1ccc(cn1)C(=O)N1CCc2c(C1)nc1n(c2=O)[nH]c(c1)c1ccccc1Cl]",% inhibition T4 10',"DRC-2, concentration 2.5",-4%
same,% inhibition T4 10',"DRC-2, concentration 10",-17%
same,% inhibition T4 40',"DRC-2, concentration 2.5",-4%
same,% inhibition T4 40',"DRC-2, concentration 40",-23%
same,% inhibition T4 90',"DRC-2, concentration 5",-10%
same,% inhibition T4 90',"DRC-2, concentration 80",-23%
same,% inhibition T4 180',"DRC-2, concentration 10",-10%
same,% inhibition T4 180',"DRC-2, concentration 40",-17%
same,% inhibition T4 180',"DRC-2, concentration 80",-17%
